The text below walks through data of paper PMC6356579, “Mass Spectrometry Analysis and Biological Characterization of the Predatory Ant Odontomachus monticola Venom and Venom Sac Components” (Toxins, 2019).

The test system of one data set is E. coli (NBRC 14237). In kind it is cell-based, Escherichia coli. To be noted: minimum inhibitory concentration; synthetic peptides; method as described previously [6]. The source says: (§1) Pilosulin-like peptides 1–6 were chemically synthesized by the 9-fluorenylmethyloxycarbonyl (Fmoc) method, and we examined their biological activities (Table 3). We synthesized homodimeric pilosulin-like peptide 4, which was linked by a single disulfide bond. […] These activities were higher than those of magainin, a well-known Xenopus laevis antimicrobial peptide. […] The cysteine residue of pilosulin-like peptide 4 may be important for antifungal activity.
(§2) Pilosulin-like peptides 1–6 were prepared using Fmoc chemistry by GenScript (Nanjing, Jiangsu, China). The peptides were purified by RP-HPLC with a preparative C18 column. The purity and molecular weight of the final peptides were verified by HPLC and MS. Antimicrobial, hemolytic, and histamine-releasing activities were measured as described previously.

The next data set concerns S. aureus (NBRC 12732). The class given is cell-based, Staphylococcus aureus. The settings on record: minimum inhibitory concentration; synthetic peptides; method as described previously [6].
Description: as §1, §2

Another data set can be described thus: Hemolytic activity. The class given is cell-based. The settings on record: for Hemolytic Activity (%) at 10 μM: peptide at 10 μM; for Hemolytic Activity (%) at 50 μM: peptide at 50 μM. The method, then: as §2
The test system of data set [1] is S. cerevisiae (NBRC 10217). In kind it is cell-based, Saccharomyces cerevisiae. The settings on record: minimum inhibitory concentration; synthetic peptides; method as described previously [6].
Description: as §1, §2

For data set [2] the following is noted: peptide at 10 μM; ref Shigeri et al. [24]; cited from earlier work. The method, then:
Table 3 Biological properties of O. monticola pilosulin-like peptides. | column: Hemolytic Activity (%) / at 10 μM

Data set [3] relates to rat mast cells. To be noted: peptide at 10 μM; ref Shigeri et al. [24]; cited from earlier work. The method, then:
Table 3 Biological properties of O. monticola pilosulin-like peptides. | column: Histamine-Releasing Activity at 10 μM (%)

The subject of data set [4] is rat mast cells. The data set can be described thus: Histamine-releasing activity. The class given is cell-based. The settings on record: peptide at 10 μM. The method, then: as §2

Read-outs that look alike come from different tables or passages of the source. Marks after values point to notes of the source that are not given here. Bridge positions count the residues as written; N and C are the ends. Ends that are not written are not given here. I, II: the chains in the order shown.

With “KIKWGKIFKKGGKLIGKTALEAAANAAASEAISAMASQNE [PLP3]”, the “MIC, E. coli (NBRC 14237)” value against E. coli (NBRC 14237) is under 3.1 µM. Moreover, in the data set with S. aureus (NBRC 12732), the “MIC, S. aureus (NBRC 12732)” value is under 25 µM. In “Hemolytic activity”, the “Hemolytic Activity (%) at 10 μM” value is reported as “Negative” and the “Hemolytic Activity (%) at 50 μM” value is reported as “Negative”. Besides, the “MIC, S. cerevisiae (NBRC 10217)” value in data set [1] is under 50 µM.

For the substance Magainin [reference compound], in the data set on E. coli (NBRC 14237), the “MIC, E. coli (NBRC 14237)” value is under 12.5 µM. Moreover, the “MIC, S. aureus (NBRC 12732)” value in the data set on S. aureus (NBRC 12732) is under 25 µM. In data set [1], the “MIC, S. cerevisiae (NBRC 10217)” value is listed as “Negative”.

As to “GWGSIFKTVGKMIAKAAVKAAPEAISAMASQNE [PLP2]”, the “MIC, E. coli (NBRC 14237)” value with E. coli (NBRC 14237) was under 6.2 µM. Moreover, the “MIC, S. aureus (NBRC 12732)” value against S. aureus (NBRC 12732) was under 6.2 µM. Moreover, in the data set “Hemolytic activity”, the “Hemolytic Activity (%) at 10 μM” value is reported as “Negative” and the “Hemolytic Activity (%) at 50 μM” value stood at 10.4%. Further, the “MIC, S. cerevisiae (NBRC 10217)” value in data set [1] is under 50 µM.

Take Melittin: a honey bee hemolytic peptide: the “Hemolytic Activity (%) at 10 μM” value in data set [2] is 100.0 ^b %. Besides, the “Histamine-Releasing Activity at 10 μM (%)” value with rat mast cells [3] is 64.3 ^b %.

Turning to IWGALLGTLIPAITSAIQ-NH2 [PLP5], the “MIC, E. coli (NBRC 14237)” value in the data set on E. coli (NBRC 14237) was under 50 µM. Further, in the data set “Hemolytic activity”, the “Hemolytic Activity (%) at 10 μM” value was 6.9% and the “Hemolytic Activity (%) at 50 μM” value amounted to 94.8%.

“I: GVKELFGKAWGLVKKHLPKACGLLGYVKQ-OH / II: GVKELFGKAWGLVKKHLPKACGLLGYVKQ-OH (disulfide I:21-II:21) [PLP4]”: in the data set on E. coli (NBRC 14237), the “MIC, E. coli (NBRC 14237)” value was under 3.1 µM. Further, the “Histamine-Releasing Activity at 10 μM (%)” value in the data set on rat mast cells [4] turned out to be 66.4%. The “Histamine-Releasing Activity at 10 μM (%)” value in the data set on rat mast cells [4] (listed as Pilosulin-like peptide 4) is “comparable to that of melittin”. Besides, the “MIC, S. aureus (NBRC 12732)” value against S. aureus (NBRC 12732) is under 3.1 µM. In “Hemolytic activity”, the “Hemolytic Activity (%) at 10 μM” value is “Negative” and the “Hemolytic Activity (%) at 50 μM” value worked out at 10.5%. Besides, the “MIC, S. cerevisiae (NBRC 10217)” value in data set [1] was under 3.1 µM.

Regarding “IKGKKIMKNMGKAMKIAGKVAKAMAPIVVPLIVSAA-NH2 [PLP6]”, the “MIC, E. coli (NBRC 14237)” value against E. coli (NBRC 14237) was under 3.1 µM. For the same substance, in the data set on S. aureus (NBRC 12732), the “MIC, S. aureus (NBRC 12732)” value was under 3.1 µM. Also, in “Hemolytic activity”, the “Hemolytic Activity (%) at 10 μM” value is on record as “Negative” and the “Hemolytic Activity (%) at 50 μM” value was “Negative”.

Turning to GILDWGKKVMDWIKDKM-NH2 [PLP1], the “MIC, E. coli (NBRC 14237)” value against E. coli (NBRC 14237) was under 3.1 µM. Moreover, the “MIC, S. aureus (NBRC 12732)” value with S. aureus (NBRC 12732) was under 3.1 µM. In addition, in “Hemolytic activity”, the “Hemolytic Activity (%) at 10 μM” value was “Negative” and the “Hemolytic Activity (%) at 50 μM” value is on record as “Negative”. Further, the “MIC, S. cerevisiae (NBRC 10217)” value in data set [1] is under 50 µM.

Mastoparan: in data set [2], the “Hemolytic Activity (%) at 10 μM” value is listed as 13.5 ^b %. The “Histamine-Releasing Activity at 10 μM (%)” value with rat mast cells [3] was 31.1 ^b %.
